One experiment deals with MS IgG. The experiment can be described thus: Indirect ELISA of MS IgG binding to receptor peptides. On the set-up: species or system human. The note with it: 200 μg immunoglobulins. On the procedure:
FIG. 6: Dose-response curves of the interaction between MS sera and DDSK peptide. (A) Sera of Multiple Sclerosis patients and Control (control group is defined in material and method below) (200 μg) were incubated with different concentrations (50-100-250 μM) of peptide DDSK. For the detection, inventors used a secondary antibody anti human IgG conjugated with HRP and (3,3′,5,5′-Tetramethylbenzidine) TMB solution that was added for each well and incubated for 15-30 min. Equal volume of stopping solution (2 M H2SO4) was added to the plate and absorbance (optical density) of plate was read at 450 nm. The statistical analysis derived from 9 experiments. Values are mean±SEM. *P<0.05 MS vs CTRL (B) Linear representation of dose-response curve Values are mean±SEM. *P<0.05 MS vs CTRL.
FIGS. 7A, 7B, 7C and 7D: MS sera recognize specially receptor's peptides. […] Equal volume of stopping solution (2 M H2SO4) was added to the plate and absorbance (optical density) of plate was read at 450 nm. […]
A. Sera of Multiple Sclerosis patients and Control (200 μg) were incubated in absence (uncoated) or presence of 100 μM of DDSK peptide. […] Equal volume of stopping solution (2 M H2SO4) was added to the plate and absorbance (optical density) of plate was read at 450 nm. […]
Diluted peptide (20 μg/ml) was coated to the wells of a PVC microtiter plate and incubated at 4° C. overnight. […] For the detection, we used a secondary antibody anti human (recognized constant region of the patient antibody conjugated with HRP and (3,3′,5,5′-Tetramethylbenzidine) TMB solution that was added for each well and incubated for 15-30 min. Equal volume of stopping solution (2 M H2SO4) was added to the plate and absorbance (optical density) of plate was read at 450 nm.
To evaluate the peptide concentration to use for ELISA assay we performed a dose-response curve. […] (named DDSK in the figures) and the absorbance (optical density) of plate was read at 450 nm. […]

Experiment [1] deals with 5HT2a receptor downstream signaling in MO3-13 cells. The experiment can be described thus: Western blotting of proteins downstream of the 5HT2a receptor in MO3-13 cells. The class given is cell-based, human. On the procedure: The same membrane was also incubated with α-Tubulin antibody to show the protein loading.
Western blotting analysis of DUOX1/2 expression levels in MO3-13 cells harvested for 18 h in medium containing 0.2% FBS, preincubated with DDSK (50 uM) for 30 min in serum-free medium and then stimulated for 30 min with IgG (200 μg/ml) purified from serum of Control (IgCtr) or MS (IgMS) patients.
Western blotting analysis of P-ERK1/2 expression levels in MO3-13 cells harvested for 18 h in medium containing 0.2% FBS, preincubated with DDSK (50 uM) for 30 min in serum-free medium and then stimulated for 30 min with IgG (200 μg/ml) purified from serum of Control (Ig Ctr) or MS (IgMS) patients.
Western blotting analysis of NOX3 expression levels in MO3-13 cells harvested for 18 h in medium containing 0.2% FBS, preincubated with DDSK (50 uM) for 30 min in serum-free medium and then stimulated for30 min with IgG (200 μg/ml) purified from serum of Control (IgCtr) or MS (IgMS) patients.
Western blotting analysis of H-Ras expression levels in MO3-13 cells harvested for 18 h in medium containing 0.2% FBS, preincubated with DDSK (50 uM) for 30 min in serum-free medium and then stimulated for30 min with IgG (200 μg/ml) purified from serum of Control (Ig Ctr) or MS (IgMS) patients. The same membrane was incubated with α-Tubulin antibody to show the protein loading.
Total cells lysates were obtained in RIPA buffer (50 mM Tris-HCl, pH 7.5, NaCl 150 mM, 1% NP40, 0.5% deoxycholate, 0.1% SDS) containing 2.5 mM Na-pyrophosphate, 1 mM β-glycerophosphate, 1 mM NaVO4, 1 mM NaF, 0.5 mM PMSF, and a cocktail of protease inhibitors (Roche, USA). The cells were kept for 15 min at 4° C. and disrupted by repeated aspiration through a 21-gauge needle. Cell lysates were centrifuged for 10 min at 13000 rpm and the pellets were discarded. Fifty micrograms of total proteins were subjected to SDS-PAGE under reducing conditions. […] Membranes were placed in 5% non-fat milk in […], 0.5% Tween 20 (TBST) at 4° C. for 2 h to block the nonspecific binding sites. Filters were incubated with specific antibodies before being washed three times in TBST and then incubated with a peroxidase-conjugated secondary antibody (Santa Cruz). After washing with TBST, peroxidase activity was detected with the ECL system (GE-Healthcare, UK).
The filters were also probed with an anti α-tubulin antibody (Sigma, USA). […] Densitometric values were normalized to α-tubulin.

The mark [2] stands for this setting: 50 uM peptide 30 min, then IgMS 200 μg/ml 30 min.

With DDSKVFKEGS, in the experiment on MS IgG (100 μM peptide), the “binding of MS IgG to peptide respect to scrambled” value is “bind specifically”. The “peptide concentration at which MS IgG bind the peptide” value in the experiment with MS IgG (dose-response 50-100-250 μM peptide, absorbance 450 nm) was “higher than 50 μM”. In addition, in experiment [1] (setting [2]), the “effect of peptide preincubation on IgMS-increased DUOX1/2 protein levels” value is listed as “reverted the effect”, the “effect of peptide preincubation on IgMS-increased HaRas protein levels” value was “reverted the effect”, the “effect of peptide preincubation on IgMS-increased NOX3 protein levels” value is on record as “reverted the effect” and the “effect of peptide preincubation on IgMS-increased P-ERK1/2 protein levels” value is given as “reverted the effect”. Also, the “effect of peptide on protein levels (DUOX1/2, P-ERK1/2, NOX3, HaRas) in cells incubated with IgG from control subjects” value in experiment [1] (50 uM peptide, IgG control 200 μg/ml) is given as “did not significantly modify”.

These data come from patent US11505592B2, “Diagnosis and therapy of multiple sclerosis” (PRINDEX S.R.L., priority 2015, dated 2022).
